In general, AC50 refers to the concentration giving half of the maximal activity seen. The term CC50 denotes the concentration at which the toxic effect on the cells reaches its halfway point.

Where “and” joins values, the source holds several entries; their conditions need not be identical. Equal entries are not always repeated. Calls of active or inactive are those of the source.

The record followed here is ChEMBL document CHEMBL1201862, “PubChem BioAssay data set” (2004).

Test [1] concerns the target Sphingosine 1-phosphate receptor 2 (Homo sapiens, UniProt O95136). The test is described as follows: Dose Response Cell Based Assay for Antagonists of the S1P2 Receptor. [Related pubchem assays: 856, 736 ]. It counts as functional.
Test [2] in a line: HPDE-C7 pancreatic duct cell viability loss – fluorescence, HTS (AID 430). It counts as functional, cell-based. The settings on record: Homo sapiens.
A short description of test [3]: viability loss in CEM21 cells – cell-based, CellTiter-Glo luminescence, cherry-picked, cytotoxicity control for viral fusion inhibitor project, dose response (AID 652042).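 Also: potency for signal decrease meaning cytotoxicity.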 It counts as functional. (In ATP-based viability assays light output follows the ATP content of the culture.)
Test [4] is described as follows: blockers of HIV-1 ZM109 envelope-driven cell-cell fusion – HeLa effector, CEM target cells, luciferase, cherry-pick, dose response (AID 652058).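 Also: luciferase signal from HIV-1 Env mediated cell-cell fusion of effector and target cells.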 It counts as functional, cell-based.
Test [5] can be described thus: HIV-1 AD8 envelope cell-cell fusion blockers – cherry-pick, dose response (AID 652062).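 Also: luciferase signal from cell-cell fusion driven by HIV-1 clade B AD8 Env; potency is for inhibitors of fusion seen as a drop in luminescence.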 It counts as functional, cell-based.
A short description of test [6]: viability loss of HPDE-C7K cells – cell-based, fluorescence, HTS, primary screen (AID 431). It counts as functional. The note with it: Homo sapiens.
The nature of test [7]: inhibition of Env-driven cell fusion – HIV entry, plate reader, dry powder, dose response (AID 687023). It counts as functional, cell-based.
Test [8] deals with INS1. The test is described as follows: INS-1E survival protection against cytokine death – cell-based, luminescence, retest, dose response (AID 449756).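 Also: cell death triggered by IL-1 beta plus TNF-alpha plus IFN-gamma mixture; protective hits raise ATP signal compared with cytokine alone wells.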 It counts as functional. The settings on record: Rattus norvegicus.
Test [9] in a line: viability loss in CEM21 cells – cell-based, plate reader, dry powder, cytotoxicity control, dose response (AID 687026). It counts as functional.
The nature of test [10]: blockers of HIV-1 envelope-mediated cell-cell fusion – cherry-pick, dose response (AID 652057). It counts as functional, cell-based.
The target in test [11] is T1, COUP transcription factor 2 (Homo sapiens, UniProt P24468).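 Also: HEK293 cells transiently cotransfected with COUP-TFII expression vector and reporter; luciferase reporter luminescence driven by COUP-TFII from the pX2-168 reporter plasmid.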
T1 sequence (P24468 whole entry): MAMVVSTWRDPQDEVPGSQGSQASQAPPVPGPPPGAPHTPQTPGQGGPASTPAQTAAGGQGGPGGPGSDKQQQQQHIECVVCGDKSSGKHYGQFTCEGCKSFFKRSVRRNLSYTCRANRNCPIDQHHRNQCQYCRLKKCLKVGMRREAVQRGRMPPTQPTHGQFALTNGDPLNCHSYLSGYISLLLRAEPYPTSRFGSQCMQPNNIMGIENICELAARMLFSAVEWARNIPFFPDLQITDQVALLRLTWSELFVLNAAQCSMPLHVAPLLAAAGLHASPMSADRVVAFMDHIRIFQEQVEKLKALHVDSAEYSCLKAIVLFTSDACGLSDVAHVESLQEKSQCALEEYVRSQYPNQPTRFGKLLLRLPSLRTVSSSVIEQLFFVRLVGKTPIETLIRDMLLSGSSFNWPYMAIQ
The test is described as follows: Luminescence-based cell-based high throughput dose response assay to identify inhibitors of COUP-TFII (NR2F2). It counts as functional.

The target of test [12] is Protein Tat (Human immunodeficiency virus type 1 group M subtype B (isolate HXB2)(HIV-1), UniProt P04608). It counts as functional.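 Also: tat binding to TAR RNA read out by fluorescence polarization.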
Test [13] addresses T2, Rac GTPase-activating protein 1 (Homo sapiens, UniProt Q9H0H5).
T2 sequence (Q9H0H5 whole entry): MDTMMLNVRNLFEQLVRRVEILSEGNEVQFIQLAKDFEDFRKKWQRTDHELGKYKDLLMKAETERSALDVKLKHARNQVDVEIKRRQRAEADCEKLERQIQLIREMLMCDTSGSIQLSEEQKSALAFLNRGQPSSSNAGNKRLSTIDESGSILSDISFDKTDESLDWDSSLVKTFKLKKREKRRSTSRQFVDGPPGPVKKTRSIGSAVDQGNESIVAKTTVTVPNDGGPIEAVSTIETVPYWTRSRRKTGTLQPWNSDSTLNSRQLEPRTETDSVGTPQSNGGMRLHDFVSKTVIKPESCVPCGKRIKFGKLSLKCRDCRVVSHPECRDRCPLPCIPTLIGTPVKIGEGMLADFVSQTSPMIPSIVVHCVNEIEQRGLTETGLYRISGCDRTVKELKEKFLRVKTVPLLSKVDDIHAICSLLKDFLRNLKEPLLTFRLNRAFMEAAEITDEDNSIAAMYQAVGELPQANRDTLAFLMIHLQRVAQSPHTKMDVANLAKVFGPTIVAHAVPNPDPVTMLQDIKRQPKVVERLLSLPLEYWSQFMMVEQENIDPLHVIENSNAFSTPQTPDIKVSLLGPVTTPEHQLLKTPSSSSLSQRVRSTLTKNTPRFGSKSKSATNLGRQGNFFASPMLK
The test is described as follows: blockers of MgcRacGAP-driven Rac1 GTP hydrolysis – biochemical, ADP Hunter fluorescence, primary and confirmatory, confirmation (AID 624330). It counts as functional.

Test [14] deals with T3, Histone-lysine N-methyltransferase NSD2 (Homo sapiens, UniProt O96028).
T3 sequence (O96028 whole entry): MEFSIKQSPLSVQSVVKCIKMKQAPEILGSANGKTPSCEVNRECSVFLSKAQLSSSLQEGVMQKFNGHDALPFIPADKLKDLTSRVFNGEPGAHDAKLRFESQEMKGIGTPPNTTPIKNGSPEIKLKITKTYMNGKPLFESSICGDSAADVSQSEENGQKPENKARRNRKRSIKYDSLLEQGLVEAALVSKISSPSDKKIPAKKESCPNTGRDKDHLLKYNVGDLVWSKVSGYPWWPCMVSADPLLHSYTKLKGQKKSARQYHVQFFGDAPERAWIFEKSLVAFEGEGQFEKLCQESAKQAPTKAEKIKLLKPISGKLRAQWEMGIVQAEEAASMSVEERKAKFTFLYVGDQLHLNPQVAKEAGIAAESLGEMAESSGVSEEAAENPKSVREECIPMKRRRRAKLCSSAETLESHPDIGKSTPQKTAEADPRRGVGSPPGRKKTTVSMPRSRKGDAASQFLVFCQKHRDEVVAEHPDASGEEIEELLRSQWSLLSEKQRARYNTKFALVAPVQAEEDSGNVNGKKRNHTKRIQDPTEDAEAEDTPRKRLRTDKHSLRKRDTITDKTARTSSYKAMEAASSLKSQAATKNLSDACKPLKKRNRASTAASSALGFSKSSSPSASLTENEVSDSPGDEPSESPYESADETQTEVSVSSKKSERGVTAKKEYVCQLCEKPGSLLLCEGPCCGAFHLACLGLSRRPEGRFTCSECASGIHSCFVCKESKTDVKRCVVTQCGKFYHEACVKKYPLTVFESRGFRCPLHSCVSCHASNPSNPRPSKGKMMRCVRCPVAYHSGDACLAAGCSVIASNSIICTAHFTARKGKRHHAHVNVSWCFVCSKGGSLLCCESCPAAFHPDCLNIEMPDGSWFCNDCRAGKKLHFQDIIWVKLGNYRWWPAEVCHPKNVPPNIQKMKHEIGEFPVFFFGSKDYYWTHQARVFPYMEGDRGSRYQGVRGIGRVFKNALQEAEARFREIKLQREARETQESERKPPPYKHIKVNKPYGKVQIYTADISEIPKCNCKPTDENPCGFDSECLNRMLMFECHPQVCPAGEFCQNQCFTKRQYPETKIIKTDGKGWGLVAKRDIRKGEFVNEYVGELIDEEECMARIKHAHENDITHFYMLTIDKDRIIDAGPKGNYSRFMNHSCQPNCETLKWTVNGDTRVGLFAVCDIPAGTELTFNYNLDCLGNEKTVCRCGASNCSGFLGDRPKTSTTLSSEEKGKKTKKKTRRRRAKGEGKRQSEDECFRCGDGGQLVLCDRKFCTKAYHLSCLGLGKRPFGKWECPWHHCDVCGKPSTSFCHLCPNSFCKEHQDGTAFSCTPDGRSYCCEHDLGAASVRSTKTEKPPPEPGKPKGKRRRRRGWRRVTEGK
It counts as biochemical.

The target of test [15] is Glutathione-S-transferase (Schistosoma japonicum, UniProt Q26513). The test is described as follows: GST-antibody interaction or FRET quenching – biochemical, TR-FRET, artefact control for Vif-APOBEC3G degradation inhibitor project, dose response (AID 1117362). It counts as functional. (In general: Time-resolved FRET reads energy transfer from a long-lived donor to a nearby acceptor.)

In test [16] the target is Nonstructural protein 1 (Influenza A virus, UniProt Q194T2). It counts as functional, Influenza A virus (A/California/07/2009(H1N1)).
Test [17] addresses T4, Corticotropin-releasing factor receptor 2/Corticotropin-releasing factor-binding protein (Homo sapiens, UniProt P24387+Q13324).
T4 sequence (Q13324 whole entry): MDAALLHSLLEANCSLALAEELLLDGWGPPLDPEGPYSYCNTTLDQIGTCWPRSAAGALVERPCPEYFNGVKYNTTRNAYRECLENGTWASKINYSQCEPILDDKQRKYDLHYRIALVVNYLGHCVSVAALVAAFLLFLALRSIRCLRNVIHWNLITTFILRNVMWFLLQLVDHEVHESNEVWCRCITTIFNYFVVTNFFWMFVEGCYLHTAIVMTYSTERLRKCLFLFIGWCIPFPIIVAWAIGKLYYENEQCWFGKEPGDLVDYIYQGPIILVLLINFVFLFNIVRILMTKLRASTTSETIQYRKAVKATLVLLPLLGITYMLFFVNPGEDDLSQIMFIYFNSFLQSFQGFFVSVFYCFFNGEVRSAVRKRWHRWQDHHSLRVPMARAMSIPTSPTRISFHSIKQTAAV
T4 sequence (P24387 whole entry): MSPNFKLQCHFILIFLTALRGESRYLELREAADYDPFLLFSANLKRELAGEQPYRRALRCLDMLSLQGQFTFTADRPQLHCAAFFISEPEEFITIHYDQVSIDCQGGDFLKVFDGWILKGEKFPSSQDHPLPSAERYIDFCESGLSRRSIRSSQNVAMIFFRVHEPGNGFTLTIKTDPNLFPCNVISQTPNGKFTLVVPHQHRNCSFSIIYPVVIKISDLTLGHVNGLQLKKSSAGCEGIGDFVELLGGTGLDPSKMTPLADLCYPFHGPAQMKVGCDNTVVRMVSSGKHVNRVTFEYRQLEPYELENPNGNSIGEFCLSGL
The test is described as follows: activators of CRF receptor 2 with binding protein – uHTS hits, confirmation (AID 602473). The settings on record: read-out: EC50_Mean. It counts as functional.

Test [18] has as its target T4, Corticotropin-releasing factor receptor 2/Corticotropin-releasing factor-binding protein. The test is described as follows: Dose Response confirmation of uHTS hits for small molecule antagonists of the CRF-binding protein and CRF-R2 receptor complex. It counts as functional. The note with it: read-out: IC50_Mean.
Test [19] in a line: viability loss in HeLa cells – cytotoxicity control for MgcRacGAP inhibitor project, dose response (AID 624300). It counts as functional.
The nature of test [20]: viability loss in THP-1 monocytes – THP-1 cells, cytotoxicity control for Vif-APOBEC3G degradation inhibitor project, dose response (AID 1117359). It counts as functional. The note with it: THP-1.

Nonstructural protein 1, sequence (Q194T2 whole entry): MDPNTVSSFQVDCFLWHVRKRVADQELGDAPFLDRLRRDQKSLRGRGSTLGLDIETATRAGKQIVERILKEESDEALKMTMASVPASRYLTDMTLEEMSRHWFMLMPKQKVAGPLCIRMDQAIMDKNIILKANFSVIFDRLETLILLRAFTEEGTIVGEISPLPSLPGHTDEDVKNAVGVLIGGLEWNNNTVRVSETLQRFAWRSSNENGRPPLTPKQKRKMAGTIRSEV
Protein Tat, sequence (P04608 whole entry): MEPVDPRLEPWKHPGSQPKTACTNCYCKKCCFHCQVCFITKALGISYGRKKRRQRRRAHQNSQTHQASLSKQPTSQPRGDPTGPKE
Sphingosine 1-phosphate receptor 2, sequence (O95136 whole entry): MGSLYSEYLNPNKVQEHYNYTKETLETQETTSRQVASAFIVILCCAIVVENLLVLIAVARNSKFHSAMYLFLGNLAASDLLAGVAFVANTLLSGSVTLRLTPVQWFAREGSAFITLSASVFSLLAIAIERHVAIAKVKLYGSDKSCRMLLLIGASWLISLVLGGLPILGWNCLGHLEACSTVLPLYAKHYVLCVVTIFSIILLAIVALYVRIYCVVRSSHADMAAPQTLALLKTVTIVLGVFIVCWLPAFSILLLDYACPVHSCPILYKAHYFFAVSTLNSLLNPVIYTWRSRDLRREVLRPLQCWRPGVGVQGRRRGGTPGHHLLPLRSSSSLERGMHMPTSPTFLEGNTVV
Glutathione-S-transferase, sequence (Q26513 whole entry): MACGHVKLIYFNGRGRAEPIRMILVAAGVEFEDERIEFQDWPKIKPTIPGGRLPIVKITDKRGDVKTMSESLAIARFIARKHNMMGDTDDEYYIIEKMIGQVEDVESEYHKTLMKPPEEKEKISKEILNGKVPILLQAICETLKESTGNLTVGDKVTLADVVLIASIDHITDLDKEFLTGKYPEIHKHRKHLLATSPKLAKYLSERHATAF

Regarding `COc1ccc2c(c1)[nH]c1c(N3CCN(Cc4ccc5c(c4)OCO5)CC3)ncnc12`, the values for the IC50 in [1] and in test [11] were 4.01 µM (active) and 6.68 µM (active), respectively. The EC50 in test [2] was 16.7 µM (active); in test [6], 14.8 µM (active). Also, the AC50 is 38 µM (active) in test [3]; 6.42 µM (active) in test [4]; 4.68 µM (active) in test [5]; 2.72 µM (active) and 5.39 µM (active) in test [7]; 2.06 µM (active) in [8]; 35.8 µM (active) and 32.4 µM (active) in [9]. Also, the half-maximal activity concentration (AC50) in test [10] was 3.89 µM (active).

For `COc1ccccc1NC(=O)CN(Cc1ccco1)C(=O)c1cccs1`, in test [12], the IC50 is > 100 µM (inconclusive).

In the case of `Cc1cc2c(=Cc3ccc(N(C)C)cc3)c3ccccc3n2[n+]1C`, the IC50 is 45.4 µM (active) in test [13]; 7.36 µM (active) in test [15]; 20.9 µM (active) in test [16]; > 47.1 µM (inactive) in test [18]; 3.87 µM (active) in test [11]. For the same molecule, the AC50 in test [14] is 17.6 µM (active). The EC50 in test [17] is > 53 µM (inactive). Besides, the CC50 in [19] was 18.5 µM (active); in [20], 1.02 µM (active).
